According to patent publication US20070128217A1 (priority 2003, published 2007):

Columns and labels:
[1] = tested on: antibodies in sera from SARS patients (sera 1a, 1b, 2, 6, 37, 62, London, SARS-yellow, SARS-green); type: binding, human; design: Binding of serum 6 to linear peptides of protein X1 of SARS-CoV Urbani / Binding of serum 37 to linear peptides of protein X1 of SARS-CoV Urbani / Binding of serum 6 to looped/cyclic peptide (PEPSCAN-ELISA) / Binding of serum 37 to looped/cyclic peptide (PEPSCAN-ELISA) / Binding of serum 37 to looped/cyclic peptides of protein X1 of SARS-CoV Urbani / Binding of serum 6 to linear peptides of protein X2 / Binding of serum 37 to linear peptides of protein X2 / Binding of serum 37 to looped/cyclic peptides of protein X2 of SARS-CoV Urbani / Binding of serum 6 to linear peptides of protein M of SARS-CoV Urbani / Binding of serum 37 to linear peptides of protein M of SARS-CoV Urbani / Binding of serum 6 to looped/cyclic peptides of protein M of SARS-CoV Urbani / Binding of serum 37 to looped/cyclic peptides of protein M of SARS-CoV Urbani / Binding of serum 6 to linear peptides of protein X3 of SARS-CoV Urbani / Binding of serum 37 to linear peptides of protein X3 of SARS-CoV Urbani / Binding of serum 37 to looped/cyclic peptides of protein X3 of SARS-CoV Urbani / Binding of serum 6 to linear peptides of protein X4 of SARS-CoV Urbani / Binding of serum 37 to linear peptides of protein X4 of SARS-CoV Urbani / Binding of serum 37 to looped/cyclic peptides of protein X4 of SARS-CoV Urbani / Binding of serum 6 to linear peptides of protein X5 of SARS-CoV Urbani / Binding of serum 37 to linear peptides of protein X5 of SARS-CoV Urbani / Binding of serum 37 to looped/cyclic peptides of protein X5 of SARS-CoV Urbani / Binding of serum 6 to linear peptides of protein N of SARS-CoV Urbani / Binding of serum 37 to linear peptides of protein N of SARS-CoV Urbani / Binding of serum 6 to linear peptide (PEPSCAN-ELISA) / Binding of serum 1a to looped/cyclic peptides of protein N of SARS-CoV Urbani / Binding of serum 1b to looped/cyclic peptides of protein N of SARS-CoV Urbani / Binding of serum 2 to looped/cyclic peptides of protein N of SARS-CoV Urbani / Binding of serum 6 to looped/cyclic peptides of protein N of SARS-CoV Urbani / Binding of serum 37 to looped/cyclic peptides of protein N of SARS-CoV Urbani / Binding of serum 62 to looped/cyclic peptides of protein N of SARS-CoV Urbani / Binding of serum London to looped/cyclic peptides of protein N of SARS-CoV Urbani / Binding of serum SARS-green to looped/cyclic peptides of protein N of SARS-CoV Urbani: unit not given here
[2] = tested on: control sera (pooled serum of ten healthy LUMC hospital workers; commercial negative donor pooled serum from the Dutch bloodbank); type: binding, human; design: Binding of Control serum LUMC to linear peptides / Binding of Control serum Blood-bank to linear peptides / Binding of Control serum LUMC to looped peptides / Binding of Control Serum Blood-Bank to Looped peptides / Binding of Control serum LUMC to linear peptides of the protein M of SARS-CoV Urbani / Binding of Control serum Blood-bank to linear peptides of the protein M of SARS-CoV Urbani / Binding of Control serum LUMC to looped peptides of the protein M of SARS-CoV Urbani / Binding of Control Serum Blood-Bank to Looped peptides of the protein M of SARS-CoV Urbani: unit not given here
[3] = tested on: rabbit serum obtained by immunizing a rabbit with the SARS-CoV strain Frankfurt 1; type: binding; design: Binding of a rabbit serum to linear peptides / Binding of a rabbit serum to looped peptides / Rabbit serum linear peptides / Rabbit serum looped peptides / Binding of a rabbit serum to linear peptides of protein N of SARS-CoV Urbani (Rabbit serum linear peptides) / Binding of a rabbit serum to looped/cyclic peptides of protein N of SARS-CoV Urbani (Rabbit serum looped peptides): unit not given here
[4] = tested on: recombinant human anti-SARS-CoV antibody 03-018; type: binding; design: Binding of antibody 03-018 to linear peptides of the N protein of SARS-CoV Urbani / Binding of antibody 03-018 to looped/cyclic peptides of the N protein of SARS-CoV Urbani: unit not given here

## NSGPDDQIGYYRRAT
[1]
  Binding of serum 1a to linear peptides of protein N of SARS-CoV Urbani: 0.2
  Binding of serum 1a to looped/cyclic peptides of protein N of SARS-CoV Urbani: 0.5
  Binding of serum 1b to linear peptides of protein N of SARS-CoV Urbani: 0.1
  Binding of serum 1b to looped/cyclic peptides of protein N of SARS-CoV Urbani: 0.3
  Binding of serum 2 to linear peptides of protein N of SARS-CoV Urbani: 0.1
  Binding of serum 2 to looped/cyclic peptides of protein N of SARS-CoV Urbani: 0.5
  Binding of serum 6 to linear peptides of protein N of SARS-CoV Urbani: 0.2
  Binding of serum 6 to looped/cyclic peptides of protein N of SARS-CoV Urbani: 0.3
  Binding of serum 37 to linear peptides of protein N of SARS-CoV Urbani: 0.7
  Binding of serum 37 to looped/cyclic peptides of protein N of SARS-CoV Urbani: 1.0
  Binding of serum 62 to linear peptides of protein N of SARS-CoV Urbani: 0.6
  Binding of serum 62 to looped/cyclic peptides of protein N of SARS-CoV Urbani: 0.7
  Binding of serum London to linear peptides of protein N of SARS-CoV Urbani: 0.4
  Binding of serum London to looped/cyclic peptides of protein N of SARS-CoV Urbani: 0.5
  Binding of serum SARS-green to linear peptides of protein N of SARS-CoV Urbani: 0.1
  Binding of serum SARS-green to looped/cyclic peptides of protein N of SARS-CoV Urbani: 0.5
  Binding of serum SARS-yellow to linear peptides of protein N of SARS-CoV Urbani: 0.5
  Binding of serum SARS-yellow to looped/cyclic peptides of protein N of SARS-CoV Urbani: 0.6
[2]
  Binding of Control Serum Blood-Bank to Looped peptides: 0.7
  Binding of Control serum Blood-bank to linear peptides: 0.7
  Binding of Control serum LUMC to linear peptides: 0.7
  Binding of Control serum LUMC to looped peptides: 0.8
[3]
  Binding of a rabbit serum to linear peptides of protein N of SARS-CoV Urbani (Rabbit serum linear peptides): 0.1
  Binding of a rabbit serum to looped/cyclic peptides of protein N of SARS-CoV Urbani (Rabbit serum looped peptides): 0.5
[4]
  Binding of antibody 03-018 to linear peptides of the N protein of SARS-CoV Urbani: 0.1
  Binding of antibody 03-018 to looped/cyclic peptides of the N protein of SARS-CoV Urbani: 0.2

## NTASWFTALTQHGKE
[1]
  Binding of serum 1a to linear peptides of protein N of SARS-CoV Urbani: 0.2
  Binding of serum 1a to looped/cyclic peptides of protein N of SARS-CoV Urbani: 0.2
  Binding of serum 1b to linear peptides of protein N of SARS-CoV Urbani: 0.1
  Binding of serum 1b to looped/cyclic peptides of protein N of SARS-CoV Urbani: 0.2
  Binding of serum 2 to linear peptides of protein N of SARS-CoV Urbani: 0.1
  Binding of serum 2 to looped/cyclic peptides of protein N of SARS-CoV Urbani: 0.2
  Binding of serum 6 to linear peptides of protein N of SARS-CoV Urbani: 0.1
  Binding of serum 6 to looped/cyclic peptides of protein N of SARS-CoV Urbani: 0.1
  Binding of serum 37 to linear peptides of protein N of SARS-CoV Urbani: 0.7
  Binding of serum 37 to looped/cyclic peptides of protein N of SARS-CoV Urbani: 0.4
  Binding of serum 62 to linear peptides of protein N of SARS-CoV Urbani: 0.5
  Binding of serum 62 to looped/cyclic peptides of protein N of SARS-CoV Urbani: 0.3
  Binding of serum London to linear peptides of protein N of SARS-CoV Urbani: 0.4
  Binding of serum London to looped/cyclic peptides of protein N of SARS-CoV Urbani: 0.3
  Binding of serum SARS-green to linear peptides of protein N of SARS-CoV Urbani: 0.4
  Binding of serum SARS-green to looped/cyclic peptides of protein N of SARS-CoV Urbani: 0.3
  Binding of serum SARS-yellow to linear peptides of protein N of SARS-CoV Urbani: 0.5
  Binding of serum SARS-yellow to looped/cyclic peptides of protein N of SARS-CoV Urbani: 0.3
[2]
  Binding of Control Serum Blood-Bank to Looped peptides: 0.5
  Binding of Control serum Blood-bank to linear peptides: 0.5
  Binding of Control serum LUMC to linear peptides: 0.6
  Binding of Control serum LUMC to looped peptides: 0.4
[3]
  Binding of a rabbit serum to linear peptides of protein N of SARS-CoV Urbani (Rabbit serum linear peptides): 0.1
  Binding of a rabbit serum to looped/cyclic peptides of protein N of SARS-CoV Urbani (Rabbit serum looped peptides): 0.1
[4]
  Binding of antibody 03-018 to linear peptides of the N protein of SARS-CoV Urbani: 0.1
  Binding of antibody 03-018 to looped/cyclic peptides of the N protein of SARS-CoV Urbani: 0.2

## NTPKDHIGTRNPNNN
[1]
  Binding of serum 1a to linear peptides of protein N of SARS-CoV Urbani: 0.3
  Binding of serum 1a to looped/cyclic peptides of protein N of SARS-CoV Urbani: 0.4
  Binding of serum 1b to linear peptides of protein N of SARS-CoV Urbani: 0.1
  Binding of serum 1b to looped/cyclic peptides of protein N of SARS-CoV Urbani: 0.3
  Binding of serum 2 to linear peptides of protein N of SARS-CoV Urbani: 0.3
  Binding of serum 2 to looped/cyclic peptides of protein N of SARS-CoV Urbani: 0.4
  Binding of serum 6 to linear peptides of protein N of SARS-CoV Urbani: 0.2
  Binding of serum 6 to looped/cyclic peptides of protein N of SARS-CoV Urbani: 0.3
  Binding of serum 37 to linear peptides of protein N of SARS-CoV Urbani: 0.8
  Binding of serum 37 to looped/cyclic peptides of protein N of SARS-CoV Urbani: 0.6
  Binding of serum 62 to linear peptides of protein N of SARS-CoV Urbani: 0.7
  Binding of serum 62 to looped/cyclic peptides of protein N of SARS-CoV Urbani: 0.3
  Binding of serum London to linear peptides of protein N of SARS-CoV Urbani: 0.4
  Binding of serum London to looped/cyclic peptides of protein N of SARS-CoV Urbani: 0.4
  Binding of serum SARS-green to linear peptides of protein N of SARS-CoV Urbani: 0.4
  Binding of serum SARS-green to looped/cyclic peptides of protein N of SARS-CoV Urbani: 0.4
  Binding of serum SARS-yellow to linear peptides of protein N of SARS-CoV Urbani: 0.6
  Binding of serum SARS-yellow to looped/cyclic peptides of protein N of SARS-CoV Urbani: 0.4
[2]
  Binding of Control Serum Blood-Bank to Looped peptides: 0.5
  Binding of Control serum Blood-bank to linear peptides: 0.8
  Binding of Control serum LUMC to linear peptides: 0.7
  Binding of Control serum LUMC to looped peptides: 0.6
[3]
  Binding of a rabbit serum to linear peptides of protein N of SARS-CoV Urbani (Rabbit serum linear peptides): 0.1
  Binding of a rabbit serum to looped/cyclic peptides of protein N of SARS-CoV Urbani (Rabbit serum looped peptides): 0.1
[4]
  Binding of antibody 03-018 to linear peptides of the N protein of SARS-CoV Urbani: 0.1
  Binding of antibody 03-018 to looped/cyclic peptides of the N protein of SARS-CoV Urbani: 0.2
